{"source": "patent US20250382198A1", "about": "“ADSORBENT AND METHOD FOR REMOVING PER- AND/OR POLYFLUOROALKYL SUBSTANCES (PFAS) IN WATER MATRICES” (University of Central Florida Research Foundation, Inc., priority 2024, published 2025)", "origin": "cited, not measured here"}
{"molecule": "O=C(O)C(F)(OC(F)(F)C(F)(F)C(F)(F)F)C(F)(F)F", "note": "(centres unmarked) [GenX, hexafluoropropylene oxide dimer acid]", "values": [{"measurement": "Log D", "result": 0.47}, {"measurement": "pKa", "result": 2.84}]}
{"molecule": "O=C(O)C(F)(F)C(F)(F)C(F)(F)F", "note": "[PFBA, Perfluorobutanoic acid]", "values": [{"measurement": "Log D", "result": "−1.22"}]}
{"molecule": "O=C(O)C(F)(F)C(F)(F)C(F)(F)C(F)(F)C(F)(F)C(F)(F)C(F)(F)F", "note": "[PFOA, Perfluorooctanoic acid]", "values": [{"measurement": "Log D", "result": 1.58}]}
{"molecule": "O=S(=O)(O)C(F)(F)C(F)(F)C(F)(F)C(F)(F)C(F)(F)C(F)(F)C(F)(F)C(F)(F)F", "note": "[PFOS, Perfluorooctanesulfonic acid]", "values": [{"measurement": "Log D", "result": 3.05}]}
